Here are results for seven molecules from patent US20150246056A1, “METHODS FOR TREATING OR PREVENTING SYMPTOMS OF HORMONAL VARIATIONS” (priority 2006, published 2015).

Like-named read-outs stand apart in the source and are kept apart here.

In data set [1] the test system is hot flashes or other symptoms of hormonal variations.
A further data set has as its system hot flashes. As to conditions: cited from earlier work; for minimizing the occurrence and severity of hot flashes compared with placebo: randomized clinical trials (Loprinzi 2000; Stearns 2003).
The next data set concerns the target D2 dopamine receptor (Homo sapiens, UniProt P14416). As to conditions: serial PET scans; cited from earlier work.
For data set [2], the target named is dopamine type 2 (D2) receptor (Homo sapiens, UniProt P14416). As to conditions: cited from earlier work.
The next data set has as its system α1-adrenergic receptors. As to conditions: cited from earlier work.
A further data set deals with α2-adrenergic receptors. As to conditions: cited from earlier work.
A further data set deals with D1 dopamine receptors (Homo sapiens, UniProt P21728). As to conditions: cited from earlier work.
Setting [3] is: Patient 2, risperidone 2 mg per day.
Setting [4] is: Patient 3, risperidone 1 mg daily resumed.

D1 dopamine receptors, sequence (P21728 whole entry): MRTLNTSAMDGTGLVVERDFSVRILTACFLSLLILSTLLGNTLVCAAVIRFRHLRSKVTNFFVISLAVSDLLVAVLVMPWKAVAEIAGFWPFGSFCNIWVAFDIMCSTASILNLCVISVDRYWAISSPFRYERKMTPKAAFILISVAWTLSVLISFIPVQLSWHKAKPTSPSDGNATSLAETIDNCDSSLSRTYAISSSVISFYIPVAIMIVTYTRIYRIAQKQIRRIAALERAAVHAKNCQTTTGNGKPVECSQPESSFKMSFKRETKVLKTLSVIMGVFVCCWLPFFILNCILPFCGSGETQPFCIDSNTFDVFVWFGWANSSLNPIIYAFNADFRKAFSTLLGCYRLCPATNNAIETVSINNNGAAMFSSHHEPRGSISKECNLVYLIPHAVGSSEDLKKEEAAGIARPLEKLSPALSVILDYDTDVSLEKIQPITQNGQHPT
D2 dopamine receptor, sequence (P14416 whole entry): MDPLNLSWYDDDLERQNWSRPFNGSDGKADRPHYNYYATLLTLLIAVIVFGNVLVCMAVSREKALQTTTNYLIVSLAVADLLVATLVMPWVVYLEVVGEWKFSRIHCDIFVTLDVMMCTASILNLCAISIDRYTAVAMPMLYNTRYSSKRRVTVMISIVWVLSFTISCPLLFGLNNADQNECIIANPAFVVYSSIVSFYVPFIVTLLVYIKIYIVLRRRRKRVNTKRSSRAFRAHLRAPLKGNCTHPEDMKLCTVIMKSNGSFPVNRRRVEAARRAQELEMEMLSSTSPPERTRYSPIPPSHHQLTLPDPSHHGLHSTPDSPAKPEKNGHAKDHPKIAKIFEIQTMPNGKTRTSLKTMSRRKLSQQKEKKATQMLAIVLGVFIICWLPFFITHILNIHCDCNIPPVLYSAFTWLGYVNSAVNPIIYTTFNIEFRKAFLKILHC
dopamine type 2 (D2) receptor, sequence (P14416 whole entry): as above

As to `COC(=O)C1=C(C)NC(C)=C(C(=O)OC)C1c1ccccc1[N+](=O)[O-]` [adalate], the “blood pressure after sublingual dose for sudden onsets of high blood pressure” value in data set [1] (human, in vivo) was “frequently dropped below critical level”.
Take `Clc1cccc(Cl)c1N=C1NCCN1` [clonidine]: the adverse effects entry with hot flashes (randomized clinical trials, including dry mouth, dizziness, and blurred vision) is “common”. In addition, the “efficacy against hot flashes compared with placebo” value in the data set on hot flashes (randomized clinical trials, tamoxifen-induced hot flashes (Goldberg 1994; Pandya 2000)) is “moderately more efficacious than placebo”.
Consider `Fc1ccc([C@@H]2CCNC[C@H]2COc2ccc3c(c2)OCO3)cc1` [paroxetine], for which, in the data set with hot flashes, the “minimizing the occurrence and severity of hot flashes compared with placebo” value is “more effective than placebo”.
With `OCCOCCN1CCN(C2=Nc3ccccc3Sc3ccccc32)CC1` [quetiapine], at D2 dopamine receptor, the “dissociation from the D2 receptor” value is given as “rapidly disassociates”.
On to `Cc1nc2n(c(=O)c1CCN1CCC(c3noc4cc(F)ccc34)CC1)CCCC2` [risperidone], for which the “associated symptoms, such as palpitation and anxiety” value in data set [1] (Patient 1, risperidone 2 mg/day) was “improved significantly”. Also, the “time to reoccurrence of hot flashes after discontinuing the treatment” value in data set [1] (Patient 1, risperidone 2 mg/day discontinued) lay within 2 to 3 days. Further, the “frequency of hot flashes” value in data set [1] (Patient 1, risperidone 2 mg/day, after three days of treatment) is recorded as “once per 1-2 weeks”. For the same molecule, in data set [1] (Patient 1, risperidone resumed), the “time to alleviation of symptoms after resuming treatment” value lay within 3 to 4 days. The “hot flashes after treatment was resumed” value is listed as “has not suffered another hot flash since” in data set [1] (Patient 2, risperidone 2 mg daily resumed) and “no longer experienced hot flashes” in data set [1] (setting [4]). The blood pressure entry in data set [1] (setting [3]) was “stabilized”; in data set [1] (Patient 4, risperidone 2 mg per night) it was “stabilized within the normal range”. Besides, the sleep result in data set [1] (setting [3]) is given as “slept well”. The “occurrence of hot flashes” value was “completely eliminated” in data set [1] (Patient 2, risperidone 2 mg per day, by day 7) and “reduced markedly” in data set [1] (Patient 2, risperidone 2 mg per day, two days after starting). Besides, the “time to return of hot flashes and night sweats after treatment was completely discontinued” value in data set [1] (Patient 2, risperidone tapered off over 2 days) is reported as “two”. The “quality of sleep and life” value in data set [1] (setting [4]) is recorded as “improved”. Also, the “frequency and intensity of hot flashes” value in data set [1] (Patient 3, risperidone 1 mg per night, three days after starting, seven hot flashes per day before) was “markedly reduced”. Further, the “hot flashes after dose reduction” value in data set [1] (Patient 3, three months later, risperidone 0.25 mg or less per day) is listed as “still markedly eliminated”. In addition, in data set [1] (Patient 4, risperidone 1 mg at bedtime for two days, then 2 mg per night, with hormone replacement therapy, three days after starting), the residual hot flashes result was “completely eliminated”. The “affinity for D2 receptor” value in data set [2] is given as “high affinity”. In addition, the “affinity for α1-adrenergic receptors” value in the data set on α1-adrenergic receptors is “high affinity”. Moreover, the “affinity for α2-adrenergic receptors” value with α2-adrenergic receptors is recorded as “lower affinities”. The “binding to D1 dopamine receptors” value on D1 dopamine receptors is listed as “does not bind”.
Regarding `COc1ccc(C(CN(C)C)C2(O)CCCCC2)cc1` (stereo not drawn) [venlafaxine], the “minimizing the occurrence and severity of hot flashes compared with placebo” value in the data set on hot flashes is recorded as “more effective than placebo”.
Consider estrogen, for which the “response of perimenopausal symptoms to earlier therapies” value in data set [1] (Patient 3, perimenopausal person) is given as “responded well”.
